The nature of series [1]: Toxicity in mouse bearing intracranial tumor assessed as assessed as median survival time at 50 mg/kg, ip for 14 days treatment started at 5 days post-infection (Rvb=12.8 days). The class given is organism-based. The settings on record: in vivo, 336 h, time 14 day.
The test system of series [2] is GL26. Briefly: Antitumor activity against mouse GL26 cells implanted in C57BL6 mouse assessed as reduction in tumor size at 50 mg/kg, ip daily measured for 10 days by bioluminescence assay. The class given is functional, organism-based. The settings on record: time 10.0 day.
Series [3] addresses T1, Amine oxidase [flavin-containing] A (Homo sapiens, UniProt P21397).
T1 sequence (P21397 whole entry): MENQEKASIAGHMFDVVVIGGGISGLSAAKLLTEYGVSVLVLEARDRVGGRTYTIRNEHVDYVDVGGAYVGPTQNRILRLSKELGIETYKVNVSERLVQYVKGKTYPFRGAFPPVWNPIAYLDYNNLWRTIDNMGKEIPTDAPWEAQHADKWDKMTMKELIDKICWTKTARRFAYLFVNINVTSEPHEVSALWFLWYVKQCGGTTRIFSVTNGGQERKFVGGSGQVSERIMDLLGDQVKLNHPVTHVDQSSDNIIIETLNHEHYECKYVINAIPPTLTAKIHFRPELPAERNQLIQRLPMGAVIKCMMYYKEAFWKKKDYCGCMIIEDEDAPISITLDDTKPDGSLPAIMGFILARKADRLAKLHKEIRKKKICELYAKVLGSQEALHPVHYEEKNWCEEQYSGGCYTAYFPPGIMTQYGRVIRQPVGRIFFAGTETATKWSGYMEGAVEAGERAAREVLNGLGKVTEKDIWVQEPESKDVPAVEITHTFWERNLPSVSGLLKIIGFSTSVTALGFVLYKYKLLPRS
The experiment in a line: Inhibition of MAO-A (unknown origin) expressed in mouse GL26 cells using 14C 5-hydroxytryptamine as substrate pre-incubated for 20 mins followed by substrate addition measured after 20 mins by liquid scintillation spectroscopy. The class given is cell-based.

Series [4] deals with Mus musculus. Briefly: In vivo inhibition of MAO-A in C57BL6 mouse xenografted with mouse GL26 cells as decrease in MAO activity in brain at 50 mg/kg, ip by radiometric analysis. It counts as functional, organism-based.
The nature of series [5]: Cytotoxicity against mouse GL26 cells assessed as inhibition of cell growth incubated for 48 hrs by MTT assay. It counts as functional, cell-based. The following applies: GL26, 48 h. A general note: Formazan colour is commonly taken as a measure of viable cells.
The target in series [6] is Histone deacetylase 2 (Homo sapiens, UniProt Q92769). Briefly: Inhibition of human HDAC2 (379 to 382 residues) using RHKKAc-AMC fluorogenic peptide as substrate by fluorescence assay.
Chain of Histone deacetylase 2 (Q92769 whole entry, the tested form may be a part): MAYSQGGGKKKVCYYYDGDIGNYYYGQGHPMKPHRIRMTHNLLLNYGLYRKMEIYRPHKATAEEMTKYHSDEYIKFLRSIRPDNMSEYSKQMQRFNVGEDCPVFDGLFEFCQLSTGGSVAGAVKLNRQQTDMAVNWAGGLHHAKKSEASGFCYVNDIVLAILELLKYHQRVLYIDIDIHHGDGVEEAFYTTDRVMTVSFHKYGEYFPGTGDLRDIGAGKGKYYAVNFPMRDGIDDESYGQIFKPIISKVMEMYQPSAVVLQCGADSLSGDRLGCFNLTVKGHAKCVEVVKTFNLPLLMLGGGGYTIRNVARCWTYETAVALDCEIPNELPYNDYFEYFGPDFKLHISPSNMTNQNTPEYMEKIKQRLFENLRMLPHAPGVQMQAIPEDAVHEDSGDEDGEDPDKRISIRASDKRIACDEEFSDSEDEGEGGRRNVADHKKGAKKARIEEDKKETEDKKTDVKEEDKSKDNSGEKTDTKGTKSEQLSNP
The subject of series [7] is U-251. The experiment in a line: cells. The following applies: Homo sapiens, U-251, 48 h. It counts as functional, cell-based.
Description: Cytotoxicity against human TMZ-resistant U251 cells assessed as inhibition of cell growth incubated for 48 hrs by MTT assay
Series [8] has as its system U-251. The experiment in a line: Cytotoxicity against human U251 cells assessed as inhibition of cell growth incubated for 48 hrs by MTT assay. The class given is functional, cell-based. The following applies: DDE = dose-dependent effect.
In series [9] the test system is U-251. Briefly: cells. The class given is functional, cell-based. The settings on record: Homo sapiens, U-251, 48 h. This is another data set of the same source.
Description: Cytotoxicity against human TMZ-sensitive U251 cells assessed as inhibition of cell growth incubated for 48 hrs by MTT assay
Series [10] deals with Mus musculus. Briefly: In vivo inhibition of MAO-A in mouse xenografted with mouse GL26 assessed as decrease in MAO activity in tumor at 25 mg/kg, ip administered for 10 days by bioluminescence assay. The class given is functional, organism-based. The settings on record: time 10.0 day.
A short description of series [11]: Toxicity in C57BL6 mouse xenografted with mouse GL26 cells as assessed as last day of survival at 50 mg/kg, ip for 14 days treatment started at 5 days post-infection (Rvb=14 days). The following applies: in vivo, 336 h, time 14 day. The class given is organism-based.
Series [12] can be described thus: Toxicity in mouse bearing intracranial tumor assessed as assessed as median survival time at 25 mg/kg, ip treatment started at 7 dpi (Rvb=18.25 days). The class given is organism-based. The following applies: in vivo, 438 h.
For series [13], the target named is T2, Histone deacetylase 8 (Homo sapiens, UniProt Q9BY41).
T2 sequence (Q9BY41 whole entry): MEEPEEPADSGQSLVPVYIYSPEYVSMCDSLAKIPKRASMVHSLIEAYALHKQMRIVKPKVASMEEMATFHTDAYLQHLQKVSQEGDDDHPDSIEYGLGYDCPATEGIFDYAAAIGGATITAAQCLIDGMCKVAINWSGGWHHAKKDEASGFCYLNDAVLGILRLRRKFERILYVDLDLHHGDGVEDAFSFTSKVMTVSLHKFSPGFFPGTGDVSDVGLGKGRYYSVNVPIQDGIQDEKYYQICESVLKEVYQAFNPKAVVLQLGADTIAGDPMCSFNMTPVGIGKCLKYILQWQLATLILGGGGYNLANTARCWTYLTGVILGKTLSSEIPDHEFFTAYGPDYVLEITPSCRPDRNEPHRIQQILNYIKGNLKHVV
The experiment in a line: Inhibition of human HDAC8 (379 to 382 residues) using RHKKAcKAc-AMC fluorogenic peptide as substrate by fluorescence assay.

In series [14] the test system is Mus musculus. The experiment in a line: In vivo inhibition of MAO-A in mouse xenografted with mouse GL26 assessed as decrease in MAO activity in tumor at 50 mg/kg by radiometric analysis. The class given is functional.
Series [15] relates to GL26. Briefly: Antiproliferative activity against mouse GL26 cells assessed as decrease in number of colonies at 0.625 to 1.25 uM incubated for 48 hrs by colony formation assay. It counts as functional, cell-based. The settings on record: dose 0.625-1.25 µM.

We go through two compounds from ChEMBL document CHEMBL5154693, “N-Methylpropargylamine-Conjugated Hydroxamic Acids as Dual Inhibitors of Monoamine Oxidase A and Histone Deacetylase for Glioma Treatment” (J Med Chem, 2022).

Activity calls are given as the source filed them. No cut-off for these calls is given here.

For `C#CCN(C)CCCOc1ccc(NC(=O)CCCCCCC(=O)NO)cc1Cl`, the MST in [1] came to 14.25 days; in [12], 17.25 days. In addition, the outcome in [2], in series [4], in [10], in series [14] and in series [15] was Active. Moreover, the IC50 was 30 nM in series [3]; 6040 nM in [5]; 460 nM in series [6]; 2730 nM in series [7]; 2830 nM in series [9]; 330 nM in series [13]. In series [8], the Activity result was “Dde”. Besides, the Survival in series [11] was 16 days.
Consider `C#CCN(C)CCCOc1cc(NCc2ccc(/C=C/C(=O)NO)cc2)ccc1Cl`, for which the figures for the MST in [1] and in series [12] were 12.75 days and 19.5 days, respectively. The result in series [2], in series [4], in series [10] and in series [14] was Active. Also, the IC50 in series [3] was determined as 4 nM; in series [5], 120 nM; in series [6], 1160 nM; in series [7] it was 990 nM; in series [9], 3240 nM; in series [13], 80 nM. In addition, the Activity result in series [8] and in series [15] (DDE = dose-dependent effect) was “Dde” throughout. In series [11], the Survival stood at 14 days.

As usually defined, the IC50 is the concentration needed to halve the response being measured.
